# Reference: PMC12311729, “Probing the Mechanism of L‑DOPA 2,3-Dioxygenase Using Synthetic Derivatives of 3,4-Dihydroxyhydrocinnamic Acid” (ACS Omega, 2025)
# What was measured:
# [1] = target: L-DOPA 2,3-dioxygenase from S. lincolnensis (LmbB1) (Streptomyces lincolnensis, UniProt Q54354); test: UV-visible steady-state assay of L-DOPA 2,3-dioxygenase (LmbB1); assay type: biochemical; conditions: for kSP, O2 (μM^-1 min^-1) at pH 7.5 relative to L-DOPA x 100 for LmbB1: percentage of the value for L-DOPA
# L-DOPA 2,3-dioxygenase from S. lincolnensis (LmbB1), sequence (Q54354 entry or part of it): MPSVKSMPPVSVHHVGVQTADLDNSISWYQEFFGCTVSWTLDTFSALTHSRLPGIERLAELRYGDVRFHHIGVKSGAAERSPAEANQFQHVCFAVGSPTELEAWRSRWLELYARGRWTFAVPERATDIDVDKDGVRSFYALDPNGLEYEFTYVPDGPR
# Description: Purified, reconstituted L-DOPA 2,3-dioxygenases were assessed for activity by monitoring the cleavage of catecholic substrates using UV–visible spectroscopy. 3,4-Dihydroxyhydrocinnamic acid (DHHCA, 3) was purchased from Sigma-Aldrich. 6-CyanoDHHCA (5) and 6-bromoDHHCA (4) were synthesized as described above.
# Molecular oxygen (AirGas) was bubbled directly into the reaction buffer through a glass-bonded silica gas diffuser (Bubblemac Industries, Inc.) or as a gas mixture blended with air (AirGas). Solutions were bubbled with oxygen for several minutes prior to use and for the duration of the experiment. To determine the K M for oxygen (i.e., K MO2), L-DOPA 2,3-dioxygenases (0.25–4.0 μM) were reacted with a saturating concentration of the catecholic substrate DHHCA/6-X-DHHCA derivatives (2–10× the K M sufficient to achieve k cat) and various oxygen concentrations (21–100% or 270–1300 μM at 22 °C). The concentration of oxygen was varied by changing the percentage of oxygen in the blend using a galvanic oxygen sensor and oxygen monitor (AirGas) and then bubbling solutions, as described above. Molecular oxygen percentages were converted to molar concentrations using a reference temperature of 22 °C. The reaction of L-DOPA 2,3-dioxygenases with DHHCA/6-X-DHHCA derivatives as a function of oxygen concentration was followed by the appearance of the steady-state cleavage product by using UV–visible spectroscopy.
# The extinction coefficients for steady-state cleavage products of DHHCA and synthetic 6-X-DHHCA derivatives were determined by reacting various concentrations of DHHCA/6-X-DHHCA derivatives at 22 °C with a 10-fold stoichiometric excess of enzyme (quantified by Fe^II–see Reconstitution) in 50 mM HEPES buffer with 154 mM NaCl at pH 7.5, bubbled with 100% oxygen to a final concentration of 780–910 μM, depending on the volume of oxygenated buffer that comprised the reaction (60–70%). Substrate solutions were prepared from authentic synthetic standards using an analytical balance, and reactions were run to completion as assessed by the appearance of the steady-state product. The λmax and extinction coefficients of DHHCA, 6-cyanoDHHCA, and 6-bromoDHHCA were determined herein as ε380 = 40 740 ± 820 M^–1cm^–1, ε385 = 33 256 ± 484 M^–1cm^–1, and ε380 = 35 282 ± 1190 M^–1cm^–1, respectively (Figure S52).
# Steady-state kinetic data were obtained through a UV–visible spectroscopic assay. Initial rates were obtained from the slopes of the linear regions of the progress curves and plotted versus substrate concentration to yield a hyperbola, which was analyzed using the Michaelis–Menten expression and nonlinear least-squares fitting (NLSF) with Origin 6.0 (Microcal). Two possible derivations of the Michaelis–Menten expression were used: 1) the traditional expression y = k cat × x/(K M + x), where y is Rate/E 0 or the rate of product formation (μM/min) divided by the starting enzyme concentration (μM), x is substrate concentration (μM) and k SP (also known as k cat × K M ^–1)–that is, the second-order rate constant of enzyme and substrate–is extracted from the fitted constants; or 2) the alternative derivation that extracts k SP and k cat directly from the fit: y = (k SP × x)/((1 + k SP × x)/k cat), and where y is Rate/E 0 or the rate of product formation (μM/min) divided by the starting enzyme concentration (μM), x is substrate concentration (μM), k SP is equivalent to k cat×K M ^–1, and K M is extracted from k cat/k cat×K M ^–1.
# [2] = tested on: S. hygroscopicus jingganensis L-DOPA 2,3-dioxygenase (ShjDDO); test: Presteady state stopped-flow kinetic assay, modeled with KinTek Explorer; assay type: biochemical, Streptomyces hygroscopicus jingganensis
# Description: Reaction temperature was controlled at 14 ± 0.5 °C by a circulating water bath. […] Stock solutions of 6-[…] prepared in DMSO. […] ShjDDO was reconstituted with iron(II) sulfate heptahydrate, gel filtered into the reaction buffer, and loaded into the drive syringe. […] Fifteen to twenty progress curves from the same experimental conditions were averaged in the KinTek Stopped Flow software and exported to KinTek Explorer for modeling. Between experiments, the instrument drive syringes were cleaned with acid, base, and water; soaked in 1% Hellmanex detergent for 30 min at ∼30-35 °C; thoroughly rinsed with water; and stored in 10% ethanol. […] state kinetic data were analyzed by fitting to simulated mechanisms using the KinTek Explorer software (KinTek Corp, Austin, TX). KinTek Explorer simulates experimental results by using direct numerical integration of rate equations for the kinetic model and yields estimates for the rate constants of microscopic steps. […] state experiments were modeled using KinTek Explorer according to a defined reaction pathway, as described in the Results and Discussion and shown in Scheme . The extinction coefficients of the DHHCA and 6-[…] semialdehyde products were independently determined as described above and fixed during fitting. Some rates were fixed as either “fast” (i.e., 1 × 10^9) or very slow (1 × 10^-12, i.e., ∼0) as described in the text. The equilibrium represented by k 1 and k -1 was fixed at the ratio of substrate charge states as predicted by the experimentally determined pK a values (Table ) and the Henderson-Hasselbach equation. Extinction coefficients were fitted and/or fixed during fitting as described in the text and interpreted using the observable expression: […], where a is the extinction coefficient applied to ESQ, b is the independently experimentally determined extinction coefficient on P, and c is a y-axis offset. […] ESO2 is the ternary complex of enzyme, substrate, and oxygen. ESQ represents the putative semiquinone intermediate, a UV-absorbing species, and ESQ_X is the species formed from the nonproductive quenching of the semiquinone. […] EP is the enzyme-product complex, and P is the free semialdehyde product. P can then degrade nonenzymatically to the spectroscopically silent P_X. Errors on each fit were calculated from 2[…] at 0.83 Chi^2. The KinTek Explorer program FitSpace explores the uniqueness of a particular fit to the data by measuring the dependence of the sum square error (SSE) on each pair of parameters, while allowing all other parameters to vary in seeking the best fit. […]
# [3] = pH 7.35, 14 °C, ∼1000 μM O2, 380 nm, fitted, ± is FitSpace range
compound,measurement,setting,value
"N#Cc1cc(O)c(O)cc1CCC(=O)O [6-CyanoDHHCA (5), 3-(2-cyano-4,5-dihydroxyphenyl) propanoic acid]",activity / turnover as substrate,"[1]; LmbB1, aerobic reaction observed by UV–visible spectroscopy",measurable activity
same,kcat at 22 °C and 100% O2 saturation,"[1]; S. lincolnensis enzyme, pH 7.5",6.7 × 10^–4 ± 2.8 × 10 ^–5 sec^–1
same,"kSP,O2 × 10^2 at 22 °C","[1]; S. lincolnensis enzyme, values are kSP × 10^2",1.4 × 10^–2 ± 3.0 × 10 ^–3 μM^–1 min^–1
same,kSP catechol × 10^2 at 22 °C,"[1]; S. lincolnensis enzyme, values are kSP × 10^2, kSP = kcat/KM",3.1 × 10^–2 ± 3.9 × 10 ^–3 μM^–1 min^–1
same,"kSP, O2 (μM^-1 min^-1) at pH 7.5 relative to L-DOPA x 100 for LmbB1",[1]; listed as 6-cyanoDHHCA,0.02%
same,"kSP, O2 (μM^-1 min^-1) at pH 7.5 relative to L-DOPA x 100 for LmbB1",[1]; listed as 6-cyanoDHHCA (5),< 0.1%
same,k6 (productive formation of EI),[2]; [3],~0.55 s⁻¹
same,"k7 (rate of inactivation, ESQ to ESQ_X)",[2]; [3],~0.3 s⁻¹
same,productive formation of EI (k 6) faster than the rate of inactivation (k 7),"[2]; ratio k6/k7, presteady state with ShjDDO",1.85 times
